Data published in patent publication US11932622B1, “2-(1-(2-hydroxypropyl)-4,5-diphenyl-1H-imidazol-2-yl)pyridine as an anticancer compound” (KING FAISAL UNIVERSITY, priority 2023, dated 2024).

How the values were obtained:
[1] = test system: human prostate cancer cells (PC3); assay: Assessment of cytotoxicity by SRB assay (PC3); format: cell-based; conditions: 0.01 μM to 100 μM, 72 h
Protocol: (§1) The human prostate cancer cells (PC3) and human osteosarcoma cells (MG-63) were obtained from Nawah Scientific Inc. (Mokatam, Cairo, Egypt) and cultured in DMEM (Dulbecco's modified eagle's medium), Gibco, USA, supplemented with fetal bovine serum (FBS) at a concentration of 10% and 100 U/mL of penicillin and streptomycin (PS). The Cells were incubated at 37° C. in a humidified environment that contained 5% C02.
(§2) Cells were seeded in 96-well plates as aliquots of 100 μL cell suspension and incubated in a complete media for 24 h. Afterward, cells were treated with 2-(1-(2-hydroxypropyl)-4,5-diphenyl-1H-imidazol-2-yl)pyridine at diverse concentrations ranging from 0.01 μM to 100 μM for 72 h. Then, cells were fixed at 4° C. for one hour with 150 μL of 10% trichloroacetic acid (TCA). After washing the cells five times with distilled water, 70 μL of sulforhodamine (SRB) solution (0.4% w/v) was added and incubated for 10 min at room temperature in a dark place. […] Then, 150 μL of Tris pH 10.5 (10 mM) was added, and the absorbance was measured at 540 nm using a BMG LABTECH®-FLUOstar Omega microplate reader (Ortenberg, Germany). Half maximal inhibitory concentrations (IC50) values were calculated for each experiment using GraphPad Prism 6 software. […]
(§3) The inhibition was calculated using the following equation: Inhibition %=100−Average Viability

[2] = test system: human osteosarcoma cells (MG-63); assay: Assessment of cytotoxicity by SRB assay (MG-63); format: cell-based; conditions: 0.01 μM to 100 μM, 72 h
Protocol: as §1, §2, §3

## CC(O)Cn1c(-c2ccccn2)nc(-c2ccccc2)c1-c1ccccc1 (stereo not drawn) [2-(1-(2-hydroxypropyl)-4,5-diphenyl-1H-imidazol-2-yl)pyridine]
other
  melting point: 112 to 114 °C
[1]
  antiproliferative activity against prostate cancer cells (PC3): excellent antiproliferative activities
[2]
  antiproliferative activity against osteosarcoma (MG-63) cells: excellent antiproliferative activities
